# From US8592451B2, “Reversible nondepolarizing neuromuscular blockade agents and methods for their use” (Cornell University, priority 2009, dated 2013)
# How the values were obtained:
# [1] = L-cysteine adduction kinetics in vitro (HPLC); assay type: physicochemical; details: pH 7.4, 37° C.; for NMBA peak area / [NMBA] remaining / ln* = ln (([NMBA]t[L-cysteine]t=0)/([NMBA]t=0[L-cysteine]t)): gantacurium 200 μg/mL + L-cysteine
# Protocol: In a second experiment, to evaluate degradation in the presence of L-cysteine, buffered solutions (pH 7.4) of gantacurium, CW 002 or CW 011 were freshly prepared at 37° C. to give experimental concentrations of 1000 μg/mL (CW 002 and CW 011) and 200 μg/mL (gantacurium), after addition to and mixing with a 5% Molar excess of L-cysteine at time=0.
# The concentration of neuromuscular blocking agent/parent compound remaining at specified time points after mixing was determined by high performance liquid chromatography. The concentration of blocking agent at each time point was determined from a separately prepared reaction mixture, due to the rapid rate of L-cysteine adduction. The reaction rate constant for the second order reaction of each neuromuscular blockade agent (NMBA) with L-cysteine was derived by plotting the natural log of ([NMBA]t[L-cysteine]t=0/[NMBA]t=0[L-cysteine]t) vs. time.
# Concentrations selected were 200, 100 and 50 μg/ml which are approximately proportional to the relative potencies (ED 95) of gantacurium, CW 002 and CW 011 respectively. A degradation (adduction) pathway in the presence of L-cysteine for each of the three compounds was proposed.
# The reaction of L-cysteine with CW 002, CW 011 or gantacurium is first order in the case of both the neuromuscular blockade agent (NMBA) and L-cysteine, represented by the rate equation (1). d[Adduct]/dt=−d[NMBA]/dt=ka[NMBA][L-cysteine] (1)
# Calculation of the L-cysteine adduction half time requires experimental derivation of the reaction rate constant, ka, for each compound. The initial concentrations of NMBA and L-cysteine are unequal in the experiments conducted for this study, thus integration of equation 1 gives equation 2, where [NMBA]0 is the NMBA concentration at time equals 0 and [NMBA]t is the NMBA concentration at a time point, t.
# [formula] A plot of the ln(([NMBA]t [L-cysteine]0)/([NMBA]0 [L-cysteine]t)) versus time (ln* vs. t) gives a line, with slope equal to ka([NMBA]0−[L-cysteine]0). An adduction reaction half time can be calculated by solving for ka to be used in equation 3.
# NMBA standard solutions were prepared by a method similar to that used to prepare hydrolysis standards. The standards were prepared at 1000 μg/mL for CW 002 and CW 011 and 200 μg/mL for gantacurium.
# Solutions used for determination of NMBA concentration at the reported times for CW 002 and CW 011 were prepared as follows: L-cysteine hydrochloride monohydrate was charged to a volumetric flask in de-ionized water. A 5 mL aliquot of the L-cysteine solution (1.05 equiv. L-cysteine with respect to NMBA) was transferred by volumetric pipette to a flask held at 37.0±0.3° C. CW 002 or CW 011 was then charged to a separate 25 mL volumetric flask and diluted to volume with pH 7.4 phosphate buffer at 37.0° C. The NMBA solution was then immediately transferred to the flask containing L-cysteine to give an initial NMBA concentration of 1000 μg/mL. Solutions used for determination of gantacurium concentration versus time were prepared in a similar manner to give an initial concentration of 200 μg/mL. T=0 was defined as the time of addition of NMBA solution to L-cysteine solution. The times listed in the results table show the point of HPLC sample injection following mixing of L-cysteine and NMBA at time=0 (Table 1, below).
# Rate constants were calculated using equation (3) and the slope of the trend line derived from each data set. The strong linear correlation of the data within each set supports the use of second order kinetics for analysis of the cysteine adduction reactions.
# Reaction half times were calculated using equation 4 and the experimentally determined rate constants. The initial NMBA concentrations were chosen to reflect the relative potency observed in vivo.
# [2] = system: twitch of the extensor digitorum; assay: Reversal of neuromuscular blockade by L-cysteine or neostigmine in anesthetized rhesus monkeys; assay type: in vivo, rhesus monkeys (Macaca mulatta)
# Protocol: A control dose of 0.15 mg/kg CW 002 was allowed to recover spontaneously to TOF 110-120%. A second dose was given 60 minutes later, followed one minute afterwards by either neostigmine (0.05 mg/kg+atropine 0.05 mg/kg) or L-cysteine (10, 20, 30 or 50 mg/kg). Total duration and 5-95% recovery intervals were compared during spontaneous recovery vs. antagonism by L-cysteine or reversal by neostigmine.
# This series of paired comparisons was designed to generate dose-response data comparing spontaneous recovery of high doses of CW 011 (from 4 to 64× ED95) versus immediate antagonism at +1 min by an optimal dose of L-cysteine (50 mg/kg), previously determined during studies of immediate antagonism of CW 002. This experiment was done to explore the limits of chemical antagonism by L-cysteine of these olefinic diester neuromuscular blocking drugs, using CW 011 as a typical example with an intermediate duration of action. Five groups of animals first received a control dose of CW 011 at 4, 8, 16, 32 or 64× ED 95 (0.1 to 1.6 mg/kg). Sixty minutes after spontaneous recovery of the control dose to TOF 110-120%, the same dose was repeated, followed 1 min later by L-cysteine (50 mg/kg). Total duration of action and 5-95% recovery interval were compared during spontaneous recovery and following antagonism by L-cysteine
# The reversal of neuromuscular blockade by cysteine (5-50 mg/kg i.v.) was studied. Reversal was tested as follows: full paralysis was induced by injection of a dose of approximately 2-6× ED 95 of the compound in question. After spontaneous recovery of this dose, a second identical dose was given 15-30 min later. Cysteine was then given at +1 min after injection of the neuromuscular blocking drug at a point where no twitch was apparent (“immediate reversal”) or at the beginning of recovery from neuromuscular blockade at two percent twitch height (“classical reversal”). Comparisons were made among compounds with respect to rapidity and ease of cysteine reversal, by comparing 5-95% recovery times, and total durations of action (injection to 95% twitch recovery). Spontaneous recovery was compared with cysteine-accelerated recovery. […]
# [3] = system: twitch of the extensor digitorum; assay: Neuromuscular blocking potency and duration in anesthetized rhesus monkeys; assay type: in vivo, rhesus monkeys (Macaca mulatta)
# Protocol: Experiments were approved by the Institutional Animal Care and Use Committee of Weill Medical College of Cornell University (New York, N.Y.) and of Albany Medical College (Albany, N.Y.), where the studies were conducted. A colony of 10 adult male monkeys (Macaca mulatta) weighing 8-18 kg was studied at ˜6 week intervals. Animals were housed and cared for in accordance with the Guide for Care and Use of Laboratory Animals (National Research Council, Washington, D.C.). They were fed a standard Old World monkey diet, enriched with fruits and vegetables, and other dietary novelties and were followed throughout the study to verify normal health by physical examination, body weight, and clinical laboratory studies (Complete Blood Count, Blood Urea Nitrogen and creatinine, and liver function tests).
# On the day of each study, monkeys received ketamine (7-10 mg/kg i.m.) followed by tracheal intubation under topical anesthesia with 4% lidocaine. Ventilation was controlled at 10 mL/kg and 20 breaths/min with isoflurane (1.0-2.0%) and N2O/O2 (2:1 mixture). Ringers lactate was administered at ˜10 ml kg^−1 h^−1. Arterial pressure was monitored from a femoral, superficial tibial, or radial (22 gauge) cannula. Heart rate was measured by tachograph from the arterial pulse wave. Core temperature was kept at 36.5-38.0° C. by warming blankets. Electrocardiogram and pulse oximetry were monitored continuously.
# Needle electrodes (25 gauge) transmitting square-wave pulses of 0.2 msec duration at supramaximal voltage which were generated by a Grass S-88 stimulator (Grass Instruments, Quincy, Mass.) were placed at the peroneal nerve at the knee to elicit twitch responses of the extensor digitorum of the foot at 0.15 Hz. A small slip (10-20%) of the tendon was dissected free under sterile technique and tied to a Grass FT 10 force transducer (Grass Instruments, Quincy, Mass.) at a baseline tension of 50 gm. Train-of four stimulation (TOF, 2 Hz for 2 sec) was interposed at appropriate points, especially 1-2 min prior to NMBA dosing and following recovery of twitch to 95% of baseline, where TOF was subsequently evaluated every 1-2 min.
# Recordings of circulatory and neuromuscular data were made on a Grass 7B polygraph (Grass Instruments). A baseline period of 15-20 min was allowed for stabilization of recordings prior to dosing.^2
# Dose-response curves for twitch blockade by gantacurium, CW 002, CW 011, cisatracurium, CW002-Cys, NB 938-69, NB 1064-81, NB 802-17 (CW 001), NB 832-65, and NB 1163-79, structures of which are all shown above, were generated as follows. […] Successive doses were separated by at least three estimated half lives beyond complete recovery of the previous dose to TOF of 110-120%, which is normal for these monkeys. Only the first one or two doses yielding 5 to 99% blockade were included from any single experiment for computation of dose-response data.
# Comparative studies of spontaneous recovery versus antagonism/reversal were done at least 3 estimated half-lives following dose-response studies.
# ED 50 and ED 95 were computed from the regression of log dose vs. the logit of percentage blockade of twitch.
# CW002-Cys, the L-cysteine adduct of CW 002, was available in limited quantity and was administered in cumulative fashion to three animals to compare approximate potency and duration of effect versus its parent compound CW 002.
smiles,measurement,setting,value
"COc1cc2c(cc1OC)[C@H](c1cc(OC)c(OC)c(OC)c1)[N@@+](C)(CCCOC(=O)/C=C(\Cl)C(=O)OCCC[N@+]1(C)CCc3cc(OC)c(OC)cc3[C@H]1Cc1cc(OC)c(OC)c(OC)c1)CC2 [Gantacurium, reference compound]",Plot Slope (ln* vs. time),"[1]; L-cysteine adduction, data of Table 1",−0.0145
same,NMBA peak area,"[1]; Trial 1, 59 Sec",476.7 mAU's
same,[NMBA] remaining,"[1]; Trial 1, 59 Sec",33 µM
same,ln* = ln (([NMBA]t[L-cysteine]t=0)/([NMBA]t=0[L-cysteine]t)),"[1]; Trial 1, 59 Sec",−0.46
same,NMBA peak area,"[1]; Trial 2, 67 Sec",384.2 mAU's
same,[NMBA] remaining,"[1]; Trial 2, 67 Sec",27 µM
same,ln* = ln (([NMBA]t[L-cysteine]t=0)/([NMBA]t=0[L-cysteine]t)),"[1]; Trial 2, 67 Sec",−0.56
same,NMBA peak area,"[1]; Trial 3, 70 Sec",344.2 mAU's
same,[NMBA] remaining,"[1]; Trial 3, 70 Sec",24 µM
same,ln* = ln (([NMBA]t[L-cysteine]t=0)/([NMBA]t=0[L-cysteine]t)),"[1]; Trial 3, 70 Sec",−0.62
same,NMBA peak area,"[1]; Trial 4, 78 Sec",281.5 mAU's
same,[NMBA] remaining,"[1]; Trial 4, 78 Sec",20 µM
same,ln* = ln (([NMBA]t[L-cysteine]t=0)/([NMBA]t=0[L-cysteine]t)),"[1]; Trial 4, 78 Sec",−0.73
same,"ka, second order rate constant of L-cysteine adduction",[1],529.6 M⁻¹ s⁻¹
same,half-life at 200 μg/ml,"[1]; pH 7.4 buffered solution with L-cysteine, calculated at [NMBA]0 0.000188 M (200 μg/ml), read-out: L-cysteine adduction reaction half time t1/2",12 s
same,effect of neostigmine given immediately after the blocking drug,[2]; immediate reversal,ineffective
same,classical antagonism of neuromuscular blockade by neostigmine,"[2]; neostigmine given at beginning of spontaneous recovery, e.g. at 2% twitch height",showed antagonism
COc1ccc(C[C@@H]2c3cc(OC)c(OC)cc3CC[N@@+]2(C)CCCOC(=O)CCC(=O)OCCC[N@+]2(C)CCc3cc(OC)c(OC)cc3[C@H]2Cc2ccc(OC)c(OC)c2)cc1OC [NB 1163-79],"Duration (± SD/SEM), from injection to recovery of twitch to 95% of baseline","[3]; administered dose 0.04 mg/kg, spontaneous recovery",27.2 ± 2.6 min
same,ED 95 (± SD/SEM),"[3]; twitch blockade, monkeys under isoflurane, twitch at 0.15 Hz, calculated from dose-response curve",0.032 ± 0.003 mg/kg
